Experimental data taken from patent US20060063820A1, “2,6-dihalo-4-(3,3-dichloro-allyloxy)-benzylalcohole derivatives having insecticidal and acaricidal properties” (priority 2002, published 2006).
Where two headings read alike, the source gives them in different places.

Legend:
Heliothis virescens = experiment: Action against Heliothis virescens caterpillars (sprayed soybean plants); type: in vivo; conditions: 144 h, read-out: percentage reduction in population and percentage reduction in feeding damage (% activity)
Procedure: (§1) Young soybean plants are sprayed with an aqueous emulsion spray mixture comprising 400 ppm of active ingredient. After the spray-coating has dried, the soybean plants are populated with 10 caterpillars of Heliothis virescens in the first stage and placed in a plastics container. Evaluation is made 6 days later. The percentage reduction in population and the percentage reduction in feeding damage (% activity) are determined by comparing the number of dead caterpillars and the feeding damage on the treated plants with that on the untreated plants.

Plutella xylostella = experiment: Action against Plutella xylostella caterpillars (sprayed cabbage plants); type: in vivo; conditions: 72 h, read-out: percentage reduction in population and percentage reduction in feeding damage (% activity)
Procedure: as §1, with “cabbage” for “soybean”, “Plutella xylostella” for “Heliothis virescens”, “third” for “first”, “3” for “6”

Spodoptera littoralis = experiment: Action against Spodoptera littoralis (sprayed soybean plants); type: in vivo; conditions: 72 h, read-out: percentage reduction in population and percentage reduction in feeding damage (% activity)
Procedure: Young soybean plants are sprayed with an aqueous emulsion spray mixture comprising 400 ppm of test compound and, after the spray-coating has dried, the plants are populated with 10 caterpillars of Spodoptera littoralis in the first stage and then placed in a plastics container. 3 days later, the percentage reduction in population and the percentage reduction in feeding damage (% activity) are determined by comparing the number of dead caterpillars and the feeding damage on the treated plants with that on untreated plants.

[1] = 400 ppm spray mixture, soybean plants, caterpillars in the first stage, evaluation 6 days later
[2] = 400 ppm spray mixture, cabbage plants, caterpillars in the third stage, evaluation 3 days later
[3] = 400 ppm spray mixture, soybean plants, caterpillars in the first stage, 3 days later

Structure (SMILES)	inhibition at 400 ppm (Heliothis virescens; [1]) [%]	inhibition at 400 ppm (Plutella xylostella; [2]) [%]	inhibition at 400 ppm (Spodoptera littoralis; [3]) [%]	also measured
FC(F)(F)Oc1ccc(C2OCC(COCc3c(Cl)cc(OCC=C(Cl)Cl)cc3Cl)O2)cc1 (single isomer, unassigned) [Compound 2.3, 4-[2,6-dichloro-4-(3,3-dichloroallyloxy)-benzyloxymethyl]-2-(4-trifluoromethoxyphenyl)-[1,3]dioxolane]	> 80	> 80	> 80	
FC(F)(F)c1ccc(OCc2c(Cl)cc(OCC=C(Cl)Cl)cc2Cl)cc1 [Compound 1.2]	> 80		> 80	
C#CCOc1cccc(OCc2c(Cl)cc(OCC=C(Cl)Cl)cc2Cl)c1 [Compound 1.3]				inhibition at 400 ppm (Heliothis virescens): > 80%; inhibition at 400 ppm (Plutella xylostella): > 80%; inhibition at 400 ppm (Spodoptera littoralis): > 80%
ClC(Cl)=CCOc1cc(Cl)c(COc2ccc3c(c2)OCO3)c(Cl)c1 [Compound 1.8]				inhibition at 400 ppm (Plutella xylostella): > 80%
ClC(Cl)=CCOc1cc(Cl)c(COc2ccnc3cc(Cl)ccc23)c(Cl)c1 [Compound 1.12]				inhibition at 400 ppm (Heliothis virescens): > 80%; inhibition at 400 ppm (Plutella xylostella): > 80%; inhibition at 400 ppm (Spodoptera littoralis): > 80%
FC(F)(F)c1cc(OCc2c(Cl)cc(OCC=C(Cl)Cl)cc2Cl)ccn1 [Compound 1.14]		> 80		
Cc1nsc(Oc2cccc(OCc3c(Cl)cc(OCC=C(Cl)Cl)cc3Cl)c2)n1 [Compound 1.21]		> 80		
ClC(Cl)=CCOc1cc(Cl)c(COCC2COC(c3ccc(Br)s3)O2)c(Cl)c1 (stereo not shown) [Compound 2.8]	> 80	> 80	> 80	
FC1(F)Oc2cccc(C3OCC(COCc4c(Cl)cc(OCC=C(Cl)Cl)cc4Cl)O3)c2O1 (stereo not shown) [Compound 2.10]	> 80	> 80	> 80	
O=[N+]([O-])c1cc(C2OCC(COCc3c(Cl)cc(OCC=C(Cl)Cl)cc3Cl)O2)cs1 (stereo not shown) [Compound 2.12]	> 80	> 80	> 80	
Cn1nc(C2OCC(COCc3c(Cl)cc(OCC=C(Cl)Cl)cc3Cl)O2)c(C(F)(F)F)c1Cl (stereo not shown) [Compound 2.15]	> 80	> 80	> 80	
N#Cc1c(Br)sc(C2OCC(COCc3c(Cl)cc(OCC=C(Cl)Cl)cc3Cl)O2)c1Cl (stereo not shown) [Compound 2.17]	> 80	> 80		
CC(C)Oc1ccc(C2(C(=O)OCc3c(Cl)cc(OCC=C(Cl)Cl)cc3Cl)CC2)cc1 [Compound 3.12]	> 80	> 80	> 80	
O=C(OCc1c(Cl)cc(OCC=C(Cl)Cl)cc1Cl)C1(c2ccc(OC(F)(F)F)cc2)CC1 [Compound 3.15]	> 80	> 80	> 80	
O=C(OCc1c(Cl)cc(OCC=C(Cl)Cl)cc1Cl)C1(c2ccc(F)cc2F)CC1 [Compound 3.16]				melting point: 63 to 64 °C
O=C(OCc1c(Cl)cc(OCC=C(Cl)Cl)cc1Cl)C1(c2ccc([N+](=O)[O-])cc2)CC1 [Compound 3.17]				melting point: 107 to 108 °C
C#COc1cccc(OCCOCc2c(Cl)cc(OCC=C(Cl)Cl)cc2Cl)c1 [Compound 4.4, 1,3-dichloro-5-(3,3-dichloroallyloxy)-2-[2-(3-ethynyloxy-phenoxy)-ethoxymethyl]-benzene]	> 80	> 80		
Cc1nsc(Oc2ccc(OCCOCc3c(Cl)cc(OCC=C(Cl)Cl)cc3Cl)cc2)n1 [Compound 4.10]				melting point: 95 to 97 °C
FC(F)(F)c1ccc(OCCOCc2c(Cl)cc(OCC=C(Cl)Cl)cc2Cl)nc1 [Compound 4.11]	> 80	> 80	> 80	
FC(F)(F)c1ccc(COCc2c(Cl)cc(OCC=C(Cl)Cl)cc2Cl)cc1 [Compound 5.6]	> 80	> 80	> 80	
O=[N+]([O-])c1cccc(COCc2c(Cl)cc(OCC=C(Cl)Cl)cc2Cl)c1 [Compound 5.9, 1,3-dichloro-5-(3,3-dichloroallyloxy)-2-(3-nitrobenzyloxymethyl)-benzene]				inhibition at 400 ppm (Heliothis virescens): > 80%; inhibition at 400 ppm (Plutella xylostella): > 80%
ClC(Cl)=CCOc1cc(Cl)c(COCc2cnc(Cl)c(Cl)c2)c(Cl)c1 [Compound 5.14]				inhibition at 400 ppm (Heliothis virescens): > 80%; inhibition at 400 ppm (Plutella xylostella): > 80%; inhibition at 400 ppm (Spodoptera littoralis): > 80%
O=C(NCc1c(Cl)cc(OCC=C(Cl)Cl)cc1Cl)Nc1ccccc1C(F)(F)F [Compound 6.23, 1-[2,6-dichloro-4-(3,3-dichloroallyloxy)-benzyl]-3-(2-trifluoromethylphenyl)-urea]	> 80	> 80	> 80	melting point: 215 to 216 °C
COC(=O)COCc1c(Cl)cc(OCC=C(Cl)Cl)cc1Cl [Compound 7.5]	> 80	> 80	> 80	
O=C(OCCOCc1c(Cl)cc(OCC=C(Cl)Cl)cc1Cl)c1ccc(C(F)(F)F)cc1 [Compound 8.11]			> 80	
O=C(OCCOCc1c(Cl)cc(OCC=C(Cl)Cl)cc1Cl)c1ccc(OC(F)(F)F)cc1 [Compound 8.12]	> 80	> 80	> 80	
